The results in this text go back to US20240398783A1, “Compounds and Pharmaceutical Compositions Comprising Inhibitors of Amyloid Peptide Interactions with Glycosaminoglycans, Methods of Treatment and Use Thereof” (Gismo Therapeutics, Inc., priority 2021, published 2024).

Each structure is given as a SMILES string. Structures can show the parent of a compound that is named as a salt.

For one assay, the target named is T1, SAA binding to purified THP-1 cell membranes (Homo sapiens, UniProt P0DJI8).
T1 sequence (P0DJI8 19-122): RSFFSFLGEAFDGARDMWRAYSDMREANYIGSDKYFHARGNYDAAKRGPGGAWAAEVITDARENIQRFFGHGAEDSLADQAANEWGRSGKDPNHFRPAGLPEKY
In words: Inhibition of SAA binding to purified cell membranes (ELISA). Conditions: purified cell membranes (THP-1 per Example 54), hydrochloride, read-out: Serum Amyloid A/Membrane Activity (IC-50). As to the method:
THP-1 (human acute monocyte leukemia cell line; ATCC cat. no. TIB-202) cell membranes were prepared by differential centrifugation as follows. THP-1 cell was grown in RPMI 1640 media (GIBCO Cat. No. 21875034, supplemented with 10% FBS) at 37 degree Celsius 5% CO2 atmosphere, harvested, and stored at −80 degree Celsius. Frozen THP-1 cells were homogenized in HEPES-Buffered sucrose (0.32M sucrose, 4 mM HEPES pH7.4, protease inhibitors) with a motor driven glass-teflon homogenizer. After removing nuclear and cell debris by centrifugation of homogenates at 1,000×g for 10 min at 4 degree Celsius, post-nuclear supernatant was centrifuged at 10,000×g for 15 minutes to remove mitochondrial fraction. Resulting supernatant was centrifuged at 100,000×g for 30 minutes to yield the crude membrane pellet. Crude membrane pellet was re-suspended in 0.32M sucrose, then centrifuged again at 100,000 xg for 30 minutes to yield washed membrane pellet. Membrane pellet was resuspended in sterile PBS (pH7.4), quickly frozen and kept in aliquots at −80 degrees Celsius. This preparation contains mostly cell membranes. Protein concentration was measured with BCA protein assay kit (Pierce Cat. No. 23227). The binding assay was performed as described in Example 48, with the following modifications. Following to coating the plates with purified human THP-1 cell membranes at 0.01 mg/ml concentration, plates were washed and blocked with 2% milk as described. The compounds were dissolved in DMSO at 10 mM final concentration and further diluted prior to assay. DMSO concentration in the screening well was up to 2%. Individual compounds were co-incubated with SAA on plates coated with cell membranes. SAA from PreProtech (NJ, USA, Cat. No. 300-53) was dissolved in DMSO, quickly frozen and kept in aliquots at −80 degrees Celsius. SAA dissolved in Tris Buffer (pH 6.5, supplemented with BSA, 0.1%) was added to the ELISA plate (100 μl per well) and incubated for 2 hours at RT with gentle shaking. Following the incubation, the plate was washed with de-ionized water and three times with TBS (pH 6.5) plus Tween. Bound SAA was detected by Anti-SAA Monoclonal Antibody (R&D System Cat. No. MAB30192, followed by secondary anti-IgG antibody conjugated to HRP (R&D System, Cat. No. HAF007). Antibody was diluted in TBS antibody buffer (pH6.5 supplemented with 1% BSA). Following each incubation with antibody, the plate was washed with de-ionized water and three times with TBS (pH6.5) wash buffer containing 0.1% Tween. Following to color development with TMB, as described in Example 49, the Optical Density of the samples was measured at 450 nm using an ELISA plate reader. Following color development, the % inhibition compared to control (no compound, DMSO control) for every compound was determined.
For each compound IC-50 value is shown in μM (micromolar). In some cases IC-50 was not measured and % inhibition at 30 μM compound concentration is shown instead. […] All assays were done on 96-well plates in duplicates and experiments were repeated at least twice. In the Table, the following abbreviations are used: A: compounds that inhibited>30% at 30 μM concentrations; B: compounds that inhibited<30% at 30 μM concentrations; NT: compounds for which inhibition curve was not obtained.
In general terms: An ELISA detects its analyte on a solid surface through an enzyme-linked reagent.
Regarding `C/C(=N\Nc1ncnc2cc(Cl)ccc12)c1ccc(-n2cc(C)nc2C)nc1` [Compound 27, (E)-7-chloro-4-(2-(1-(6-(2,4-dimethyl-1H-imidazol-1-yl)pyridin-3-yl)ethylidene)hydrazineyl)quinazoline hydrochloride], the IC50 came to 14 µM.

The same assay, now with this note: purified cell membranes (THP-1 per Example 54), read-out: Serum Amyloid A/Membrane Activity (IC-50).
As to `C/C(=N\Nc1ncnc2cc(F)ccc12)c1ccc(-n2cnc(C)c2C)nc1` [Compound 21, (E)-4-(2-(1-(6-(4,5-dimethyl-1H-imidazol-1-yl)pyridin-3-yl)ethylidene)hydrazineyl)-7-fluoroquinazoline], the IC50 worked out at 47.8 µM.

Take `C/C(=N\Nc1ncnc2cc(Cl)ccc12)c1ccc(-n2cc(C)nc2C)nc1` [Compound 18, (E)-7-chloro-4-(2-(1-(6-(2,4-dimethyl-1H-imidazol-1-yl)pyridin-3-yl)ethylidene)hydrazineyl)quinazoline phosphoric acid salt]: the IC50 is 24 µM.

`CC(=NNc1ncnc2cc(Cl)ccc12)c1ccnc(-n2cnc(C)c2C)c1` [Compound 28, 7-chloro-4-(2-(1-(2-(4,5-dimethyl-1H-imidazol-1-yl)pyridin-4-yl)ethylidene)hydrazineyl)quinazoline]: the IC50 turned out to be 22.9 µM.

On to `C/C(=N\Nc1nncc2cc(Cl)ccc12)c1ccc(-n2cc(C)nc2C)nc1` [Compound 24, (E)-6-chloro-1-(2-(1-(6-(2,4-dimethyl-1H-imidazol-1-yl)pyridin-3-yl)ethylidene)hydrazineyl)phthalazine], for which the IC50 was 8.22 µM.

For `Clc1ccc2c(Nc3ccc(-n4ccnc4)nc3)ncnc2c1` [Compound 41, N-(6-(1H-imidazol-1-yl)pyridin-3-yl)-7-chloroquinazolin-4-amine], the IC50 came out at 13.2 µM.

Turning to `Cc1cc(-n2ccnc2)ccc1/C=N/Nc1ccnc2cc(Cl)ccc12` [Compound 1, (E)-4-((E)-(4-(1H-imidazol-1-yl)-2-methylbenzylidene)hydrazono)-7-chloro-1,4-dihydroquinoline], the IC50 worked out at 12.3 µM.

Still in this assay, the particulars now being: read-out: Serum Amyloid A/Membrane Activity (IC-50), purified cell membranes (THP-1 per Example 54).
With `C/C(=N\Nc1ncnc2cc(Cl)ccc12)c1ccc(-n2cnc(C)c2C)nc1` [Compound 16, 7-chloro-4-(2-(1-(6-(4,5-dimethyl-1H-imidazol-1-yl)pyridin-3-yl)ethylidene)hydrazineyl)quinazoline phosphate], the IC50 worked out at 9.93 µM.

Turning to `COc1cc2nccc(N/N=C/c3ccc(-n4ccnc4)c(OC)c3)c2cc1OC` [Compound 13, (E)-4-(2-(4-(1H-imidazol-1-yl)-3-methoxybenzylidene)hydrazineyl)-6,7-dimethoxyquinoline phosphate], the IC50 is 44.5 µM.

Take `Cc1ncn(-c2ccc(/C=N\Nc3ncnc4cc(Cl)ccc34)cn2)c1C` [Compound 15, 7-chloro-4-(2-((6-(4,5-dimethyl-1H-imidazol-1-yl)pyridin-3-yl)methylene)hydrazineyl)quinazoline hydrochloride]: the IC50 worked out at 32.5 µM.

`Clc1ccc2c(Nc3ccc(-n4cncn4)nc3)ncnc2c1` [Compound 34, N-(6-(1H-1,2,4-triazol-1-yl)pyridin-3-yl)-7-chloroquinazolin-4-amine phosphoric acid salt]: the IC50 was 8.66 µM.

Regarding `Cc1ncn(-c2ccc(Nc3ncnc4cc(Cl)ccc34)cn2)c1C` [Compound 25, 7-chloro-N-(6-(4,5-dimethyl-1H-imidazol-1-yl)pyridin-3-yl)quinazolin-4-amine], the IC50 is 22 µM.

On to `Clc1ccc2c(N/N=C/c3ccc(-n4ccnc4)nc3)ccnc2c1` [Compound 14, (E)-4-(2-((6-(1H-imidazol-1-yl)pyridin-3-yl)methylene)hydrazineyl)-7-chloroquinoline hydrochloride], for which the IC50 stood at 27.5 µM.

With `COc1cc(Nc2nncc3cc(Cl)ccc23)cnc1-n1cnc(C)c1C` [Compound 31, 6-chloro-N-(6-(4,5-dimethyl-1H-imidazol-1-yl)-5-methoxypyridin-3-yl)phthalazin-1-amine phosphoric acid salt], the IC50 was found to be 70.8 µM.

With `CC(=NNc1ccnc2cc(Cl)ccc12)c1ccc(-n2ccnc2)cc1` [Compound 36, 4-(2-(1-(4-(1H-imidazol-1-yl)phenyl)ethylidene)hydrazineyl)-7-chloroquinoline phosphate], the IC50 turned out to be 15.3 µM.

For the compound `Clc1ccc2c(Nc3ccc(-n4cncn4)nc3)ccnc2c1` [Compound 44, N-(6-(1H-1,2,4-triazol-1-yl)pyridin-3-yl)-7-chloroquinolin-4-amine], the IC50 stood at 11.4 µM.

Regarding `Clc1ccc2c(N/N=C/c3ccc(-n4ccnc4)cc3)ccnc2c1` [Compound 38, 4-(2-(4-(1H-imidazol-1-yl)benzylidene)hydrazineyl)-7-chloroquinoline dihydrochloride], the IC50 came out at 23.6 µM.
